A word on the EC50: it is the midpoint of the concentration-response curve.

Sequence of human mGlu4 (Q14833 33-912): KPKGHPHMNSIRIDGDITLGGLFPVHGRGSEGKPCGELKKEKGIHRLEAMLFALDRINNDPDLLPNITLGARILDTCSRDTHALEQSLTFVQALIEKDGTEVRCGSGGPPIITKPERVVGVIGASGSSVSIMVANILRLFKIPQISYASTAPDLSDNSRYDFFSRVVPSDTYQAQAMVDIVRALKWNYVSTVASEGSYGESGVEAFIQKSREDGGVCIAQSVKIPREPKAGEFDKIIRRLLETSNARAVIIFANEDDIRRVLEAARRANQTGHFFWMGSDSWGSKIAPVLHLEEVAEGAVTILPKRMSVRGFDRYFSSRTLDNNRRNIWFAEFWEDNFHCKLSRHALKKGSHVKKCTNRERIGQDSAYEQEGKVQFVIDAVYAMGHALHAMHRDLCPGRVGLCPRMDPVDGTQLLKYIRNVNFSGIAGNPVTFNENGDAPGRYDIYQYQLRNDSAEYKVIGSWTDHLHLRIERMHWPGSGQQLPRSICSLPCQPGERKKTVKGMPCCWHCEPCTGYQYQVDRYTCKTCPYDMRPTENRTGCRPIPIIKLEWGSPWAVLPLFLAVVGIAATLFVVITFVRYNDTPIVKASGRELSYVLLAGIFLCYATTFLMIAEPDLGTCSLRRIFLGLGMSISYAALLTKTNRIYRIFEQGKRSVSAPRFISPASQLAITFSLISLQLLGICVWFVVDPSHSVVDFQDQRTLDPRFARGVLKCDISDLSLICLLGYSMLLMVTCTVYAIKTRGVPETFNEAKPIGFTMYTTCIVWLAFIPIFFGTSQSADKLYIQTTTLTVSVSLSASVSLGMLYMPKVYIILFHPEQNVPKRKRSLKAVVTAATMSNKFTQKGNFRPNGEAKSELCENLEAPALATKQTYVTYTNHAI

For this assay, the target named is human mGlu4 (Homo sapiens (Human), UniProt Q14833). The assay is described as follows: mGlu4 PAM assay in human mGlu4/Gqi5 cells with ~EC20 glutamate (Hamamatsu FDSS). It counts as cell-based. The following applies: ~EC20 concentration of glutamate, read-out: mGlu4 PAM EC50. The method, then:
The disclosed compounds and compositions can be evaluated for their ability to act as a potentiatior of metabotropic glutamate receptor activity, in particular mGluR4 activity, by any suitable known methodology known in the art. For example, Chinese Hamster Ovary (CHO) cells transfected with human mGluR4 or HEK cells co-transfected with rat mGluR4 and the G-protein regulated Inwardly Rectifying Potassium channel (GIRK) were plated in clear bottom assay plates for assay in a Hamamatsu FDSS Fluorometric Plate Reader. The cells were loaded with either a Ca2+-sensitive fluorescent dye or the thallium responsive dye and the plates were washed and placed into a suitable kinetic plate reader. For human mGluR4 assays, a fluorescence baseline was established for 3-5 seconds, the disclosed compounds were then added to the cells, and the response in cells was measured. Approximately two and a half minutes later, a concentration of mGluR4 orthosteric agonist (e.g. glutamate, L-AP4, or L-SOP) eliciting approximately 20% (EC20) of the maximal agonist response was added to the cells, and the response was measured. Two minutes later, a concentration of mGluR4 agonist (e.g. glutamate, L-AP4, or L-SOP) eliciting 80% (EC80) of the maximal agonist response was added to the cells, and the response was measured. For rat mGluR4/GIRK experiments, a baseline was established for approximately five seconds, disclosed compounds were added, and either an EC20 or EC80 concentration of agonist was added approximately two and one half minutes later.
The above described assay operated in two modes. In the first mode, a range of concentrations of the disclosed compounds are added to cells, followed by a single fixed concentration of agonist. If the compound acts as a potentiatior, an EC50 value for potentiation and a maximum extent of potentiation by the compound at this concentration of agonist is determined by non-linear curve fitting. If the compound acts as an antagonist, an IC50 value is determined by non-linear curve fitting. In the second mode, several fixed concentrations of the disclosed compounds are added to various wells on a plate, followed by a range in concentrations of agonist for each concentration of disclosed compound. The EC50 values for the agonist at each concentration of compound are determined by non-linear curve fitting. A decrease in the EC50 value of the agonist with increasing concentrations of the sample compound (a leftward shift of the agonist concentration-response curve) is an indication of the degree of mGluR4 potentiation at a given concentration of the sample compound. A decrease in the maximal response of the agonist with increasing concentrations of the sample compounds, with or without a rightward shift in agonist potency, is an indication of the degree of antagonism at mGluR4. The second mode also indicates whether the sample compounds also affect the maximum response to mGluR4 to agonists.
`COCCOc1nn(C)c2cc(Nc3n[nH]c4cccnc34)ccc12` [Compound 23]: the EC50 was determined as 380 nM. On to `Cn1nc(OC2CCS(=O)(=O)CC2)c2ccc(Nc3n[nH]c4cccnc34)cc21` [Compound 29], for which the concentration for a half-maximal effect (EC50) was found to be 214 nM.

In the case of `Cn1nc(Oc2ccc(C#N)cn2)c2c(Cl)cc(Nc3n[nH]c4cccnc34)cc21` [Compound 25], the EC50 was determined as 482 nM. With `Cn1nc(OC2CCOC[C@H]2F)c2ccc(NC(=O)c3ccccn3)cc21` (stereo partly drawn) [Compound 70], the EC50 amounted to 84.7 nM. Consider `Cn1nc(OC2CCS(=O)(=O)CC2)c2ccc(NC(=O)c3ccccn3)cc21` [Compound 39], for which the EC50 was 417 nM.

For `Cn1nc(OCC2CCOC2)c2ccc(NC(=O)c3ncccc3F)cc21` (stereo not drawn) [Compound 97], the EC50 came out at 505 nM. Turning to `Cn1nc(OCC2CCOCC2)c2ccc(Nc3n[nH]c4ncccc34)cc21` [Compound 52], the EC50 worked out at 157 nM. Consider `Cn1nc(OC2CC3CCC2O3)c2ccc(Nc3n[nH]c4ncccc34)cc21` (stereo not drawn) [Compound 38], for which the concentration giving a half-maximal response (EC50) is 601 nM.

Take `Cn1nc(O[C@H]2CCOC2)c2ccc(Nc3n[nH]c4ncccc34)cc21` [Compound 33]: the EC50 came out at 575 nM. With `Cn1nc(OCC2CC2)c2ccc(Nc3n[nH]c4cccnc34)cc21` [Compound 5], the EC50 worked out at 164 nM.

Take `Cn1nc(OCCOc2ccccc2F)c2ccc(Nc3n[nH]c4cccnc34)cc21` [Compound 19]: the half-maximal effective concentration (EC50) turned out to be 483 nM. With `Cn1nc(OC[C@H]2COCCO2)c2ccc(NC(=O)c3ncccc3N)cc21` [Compound 94], the concentration giving a half-maximal response (EC50) turned out to be 58.7 nM. Turning to `Cn1nc(OC2CCOCC2)c2ccc(Nc3n[nH]c4cccnc34)cc21` [Compound 20], the EC50 worked out at 45.4 nM.

As to `Cn1nc(OCC2CCOCC2)c2ncc(NC(=O)c3ncccc3O)cc21` [Compound 59], the half-maximal effective concentration (EC50) stood at 599 nM. On to `Cn1nc(OC[C@@H]2CCOC2)c2ncc(NC(=O)c3ncccc3N)cc21` [Compound 83], for which the concentration for a half-maximal effect (EC50) is 120 nM. Regarding `Cn1nc(OCC2CCOC2)c2ccc(NC(=O)c3cccc(Cl)n3)cc21` (stereo not drawn) [Compound 99], the EC50 came to 820 nM. In the case of `Cn1nc(OC2CCOC(C)(C)C2)c2ccc(NC(=O)c3ncccc3N)cc21` (stereo not drawn) [Compound 68], the EC50 stood at 131 nM. With `Cn1nc(OCC2CCOCC2)c2ncc(Nc3n[nH]c4cccnc34)cc21` [Compound 61], the EC50 was 209 nM. Regarding `CCCOc1nn(C)c2cc(Nc3n[nH]c4cccnc34)ccc12` [Compound 9], the EC50 amounted to 171 nM. As to `Cn1nc(OC2CCOC[C@H]2F)c2ccc(NC(=O)c3ncccc3O)cc21` (stereo partly drawn) [Compound 72], the EC50 amounted to 132 nM. For `Cn1nc(OCC2CCOC(C)(C)C2)c2ccc(NC(=O)c3ccc(F)cn3)cc21` (stereo not drawn) [Compound 106], the EC50 worked out at 277 nM.

For `COCCOc1nn(C)c2cc(Nc3n[nH]c4ncccc34)ccc12` [Compound 34], the half-maximal effective concentration (EC50) came to 529 nM. Consider `Cn1nc(OCC2CCCOC2)c2ccc(NC(=O)c3ncccc3O)cc21` (stereo not drawn) [Compound 87], for which the EC50 was determined as 100 nM. For the compound `Cn1nc(OC2CCOC(C)(C)C2)c2ccc(NC(=O)c3ncccc3O)cc21` (stereo not drawn) [Compound 69], the EC50 was determined as 117 nM. As for `Cn1nc(OCCN2CCOCC2)c2ccc(NC(=O)c3ncccc3N)cc21` [Compound 77], the EC50 stood at 133 nM. Next, `Cn1nc(OCC2CCCOC2)c2ccc(NC(=O)c3ccccn3)cc21` (stereo not drawn) [Compound 85]: 170 nM. On to `Cn1nc(OCC2COCCO2)c2ccc(Nc3n[nH]c4ncccc34)cc21` (stereo not drawn) [Compound 112], for which the concentration for a half-maximal effect (EC50) is 176 nM. Regarding `Cn1nc(OCC2CCOC2)c2ccc(NC(=O)c3ccccn3)cc21` (stereo not drawn) [Compound 114], the EC50 worked out at 81.2 nM. With `Cn1nc(OC2CCOCC2F)c2ccc(NC(=O)c3ncccc3N)cc21` (stereo not drawn) [Compound 71], the EC50 is 125 nM.

Consider `Cn1nc(O[C@H]2CCOC2)c2ccc(Nc3n[nH]c4cccnc34)cc21` [Compound 32], for which the EC50 was determined as 456 nM. For `Cn1nc(OC2CCS(=O)(=O)CC2)c2ccc(Nc3n[nH]c4ncccc34)cc21` [Compound 48], the EC50 is 335 nM. `Cn1nc(OCc2ccccn2)c2ccc(Nc3n[nH]c4cccnc34)cc21` [Compound 17]: the EC50 is 462 nM.

`Cn1nc(OCC2CCCCO2)c2ccc(Nc3n[nH]c4cccnc34)cc21` (stereo not drawn) [Compound 14]: the EC50 is 85.6 nM. As for `Cn1nc(OCC2CCOC(C)(C)C2)c2ccc(NC(=O)c3ncccc3N)cc21` (stereo not drawn) [Compound 105], the EC50 is 127 nM. For the compound `Cn1nc(OCc2ccncc2)c2ccc(Nc3n[nH]c4cccnc34)cc21` [Compound 10], the EC50 was 65.7 nM.

As to `Cn1nc(OC[C@@H]2COCCO2)c2ccc(NC(=O)c3ncccc3N)cc21` [Compound 130], the 50% effective concentration (EC50) worked out at 24.6 nM. As to `Cn1nc(OCC2CCCOC2)c2ccc(NC(=O)c3ncccc3N)cc21` (stereo not drawn) [Compound 86], the EC50 was found to be 182 nM. On to `Cn1nc(OC[C@H]2CCOC2)c2ccc(NC(=O)c3ncccc3N)cc21` [Compound 80], for which the EC50 is 36.9 nM. Next, `Cn1nc(OCC2CCOC2)c2ncc(NC(=O)c3ncccc3N)cc21` (stereo not drawn) [Compound 56]: 86.8 nM; `[2H]C([2H])([2H])n1nc(OCC2CCOC2)c2ccc(NC(=O)c3ccccn3)cc21` (stereo not drawn) [Compound 110]: 50.4 nM.

Take `Cn1nc(OCC2CCOC2)c2ccc(NC(=O)c3cc(F)ccn3)cc21` (stereo not drawn) [Compound 98]: the EC50 stood at 991 nM. As for `Cn1nc(OCC2CCOC2)c2ccc(Nc3n[nH]c4ncccc34)cc21` (stereo not drawn) [Compound 50], the EC50 is 135 nM. On to `Cn1nc(OCC2CCOCC2)c2ccc(NC(=O)c3ncccc3N)cc21` [Compound 117], for which the EC50 came to 87.7 nM. Take `Cn1nc(OC2CCOC(C)(C)C2)c2ccc(NC(=O)c3ccccn3)cc21` (stereo not drawn) [Compound 67]: the concentration for a half-maximal effect (EC50) was 80.2 nM. With `Cn1nc(OCCN2CCOCC2)c2ccc(Nc3n[nH]c4cccnc34)cc21` [Compound 21], the EC50 turned out to be 238 nM. Turning to `Cn1nc(OC2CCOCC2F)c2ccc(Nc3n[nH]c4cccnc34)cc21` (stereo not drawn) [Compound 64], the EC50 is 89 nM.

As to `Cn1nc(OCC2CCOC2)c2ccc(Nc3n[nH]c4cccnc34)cc21` (stereo not drawn) [Compound 49], the EC50 was determined as 30.5 nM. On to `Cn1nc(OCCN2CCOCC2)c2ccc(Nc3n[nH]c4ncccc34)cc21` [Compound 66], for which the EC50 was determined as 398 nM. As to `Cn1nc(OCC2CCOC2)c2ccc(NC(=O)c3ccc(F)cn3)cc21` (stereo not drawn) [Compound 91], the EC50 was found to be 49.6 nM. Next, `Cn1nc(OC2COC2)c2ccc(Nc3n[nH]c4cccnc34)cc21` [Compound 22]: 629 nM.

As for `CC1CC(Oc2nn(C)c3cc(NC(=O)c4ncccc4O)ccc23)CCO1` (stereo not drawn) [Compound 75], the EC50 came out at 431 nM. Take `Cn1nc(OCCN2CCOCC2)c2ccc(NC(=O)c3ncccc3O)cc21` [Compound 78]: the EC50 was 255 nM. Next, `Cn1nc(OCCN2CCOCC2)c2c(Cl)cc(Nc3n[nH]c4cccnc34)cc21` [Compound 24]: 322 nM; `Cn1nc(OCC2CCOC2)c2ccc(NC(=O)c3ncccc3O)cc21` (stereo not drawn) [Compound 44]: 53 nM; `Cc1ccc(C(=O)Nc2ccc3c(OCC4CCOC4)nn(C)c3c2)nc1` (stereo not drawn) [Compound 90]: 574 nM. Take `Cn1nc(OCC2CCCOC2)c2ncc(NC(=O)c3ncccc3N)cc21` (stereo not drawn) [Compound 89]: the EC50 was determined as 181 nM. For `COCCCOc1nn(C)c2cc(Nc3n[nH]c4cccnc34)ccc12` [Compound 30], the EC50 amounted to 172 nM. Next, `Cn1nc(OCC2CCOCC2)c2ccc(Nc3n[nH]c4cccnc34)cc21` [Compound 51]: 40.4 nM. On to `Cn1nc(OC2CCS(=O)(=O)CC2)c2ccc(NC(=O)c3ncccc3O)cc21` [Compound 41], for which the EC50 was 403 nM.

As to `Cn1nc(OCC2CCOCC2)c2ccc(NC(=O)c3ccccn3)cc21` [Compound 116], the EC50 is 63 nM. Take `Cn1nc(OC[C@@H]2COCCO2)c2ccc(NC(=O)c3ncccc3N)cc21` [Compound 93]: the EC50 amounted to 30.5 nM. Next, `Cn1nc(OCC2CCOCC2)c2ncc(NC(=O)c3ncccc3N)cc21` [Compound 58]: 50.5 nM; `Cn1nc(OC2CCOC2)c2ccc(Nc3n[nH]c4cccnc34)cc21` (stereo not drawn) [Compound 28]: 726 nM. On to `Cn1nc(OC[C@H]2CCOC2)c2ncc(NC(=O)c3ncccc3N)cc21` [Compound 84], for which the concentration for a half-maximal effect (EC50) came out at 166 nM. As to `Cn1nc(OCC2CCOCC2)c2ncc(NC(=O)c3ccccn3)cc21` [Compound 57], the EC50 came to 255 nM.

Regarding `[2H]C([2H])([2H])Oc1nn(C)c2cc(Nc3n[nH]c4cccnc34)ccc12` [Compound 8], the EC50 was 294 nM.
